Source: patent US4339378A, “N-Acylcarnosine aluminum salts” (Nippon Chemiphar Co., Ltd., priority 1979, dated 1982)

Key:
Assay type in all cases: in vivo, male Donryu strain rats
[1] = test system: Aspirin-induced ulcer in rats; assay: Aspirin-induced ulcer in rats; conditions: 1,000 mg/kg P.O., aspirin 100 mg/kg; for Ulcer index: total lesion length, control 17.7 ± 2.3
Description: Aspirin-induced ulcer: Groups of ten male Donryu strain rats each weighing 220 to 230 g were deprived of food for 24 hours. The pylorus of each rat was ligated under ether anethesia according to the method of S. Okabe et al [Jap. J. Pharmac. 24, 357-361 (1974)]. After the pylorus ligation, aspirin (100 mg/kg) was administered orally to each rat. Seven hours after the administration, each of the animals was sacrificed under ether anesthesia to remove its stomach. After collection of the gastric juice and treatment with a 1% formalin solution, the length (mm) of each lesion formed in the glandular portion was measured. The total length (mm) of all the lesions of each rat was indicated as an ulcer index. Test medicine samples were given orally immediately after the pylorus ligation.

[2] = test system: Indomethacin-induced ulcer in rats; assay: Indomethacin-induced ulcer in rats; conditions: 300 mg/kg P.O., indomethacin 25 mg/kg s.c.; for Ulcer index: total lesion length, control 16.3 ± 2.4
Description: Indomethacin-induced ulcer: Groups of ten male Donryu strain rats each weighing 200 to 215 g were deprived of food for 24 hours. Then, the pylorus was ligated under ether anethesia, after which indomethacin was administered subcutaneously in an amount of 25 mg/kg to each rat. Seven hours after the administration, each of the animals was sacrificed under ether anethesia to remove its stomach, followed by immersion in a 1% formalin solution for ten minutes. The stomach which had been semi-fixed was incised along its greater curvature, and the length (mm) of each lesion formed in the mucous membrane was measured under a dissecting microscope (10×). The total length (mm) of all the lesions of each rat was indicated as an ulcer index. Test medicine samples were given orally ten minutes before the pylorus logation.

[3] = test system: Shay's ulcer in rats; assay: Shay's ulcer (pylorus ligation) in rats; conditions: for Ulcer index: total ulcerated area in forestomach
Description: Shay's ulcer: Groups of ten male Donryu strain rats each weighing 210 to 230 g were deprived of food for 48 hours. The pylorus of each rat was ligated according to the method of Shay et al [Gastroenterology, 5, 43-61 (1945)]. Each of the animals was allowed to stand abstained from food and water for further 14 hours and then sacrificed to remove its stomach. After collection of the gastric juice, the ulcerated area (mm^2) in the forestomach of each rat was measured under a dissecting microscope (10×). The total area (mm^2) of all the lesions of each rat was indicated as an ulcer index. Test medicine samples were given orally immediately after the pylorus ligation.

[4] = test system: Stress ulcer in rats; assay: Stress ulcer (restraint and water immersion) in rats; conditions: for Ulcer index: total lesion length in glandular portion, control 15.2 ± 3.2
Description: Stress ulcer: Groups of ten male Donryu strain rats each weighing 240 to 260 g were placed in a stress cage which served to immobilize the animals therein and then immersed in a water bath of 23° C. on a level with the xiphoid process according to the method of K. Takagi et al [Jap. J. Pharmac., 18 (9), 9-19 (1968)], thereby imposing stress on each rat. Seven hours after the immersion, each of the animals was withdrawn from the water bath and immediately sacrificed by a blow on the head, followed by removal of the stomach of each rat. The stomach was slightly inflated by injecting a 1% formalin solution and then immediately immersed in a 1% formalin solution, followed by incising the stomach along its greater curvature to measure the length (mm) of each lesion in the glandular portion under a dissecting microscope (10×). The total length (mm) of all the lesions of each rat was indicated as an ulcer index. Test medicine samples were given orally ten minutes before the immersion in water.

[5] = test system: Histamine-induced ulcer in rats; assay: Histamine-induced ulcer in rats; conditions: 300 mg/kg P.O., histamine phosphate 300 mg/kg i.p.; for Ulcer index: total lesion length, control 24.1 ± 4.7
Description: Histamine-induced ulcer: Groups of ten male Donryu strain rats each weighing 210 to 230 g were deprived of food for 48 hours and then administered intraperitoneally with histamine phosphate (300 mg/kg). Four hours after the administration, each of the animals was sacrificed under ether anesthesia, followed by removal of its stomach and immersion in a 1% formalin solution for ten minutes. The stomach which had been semi-fixed was incised along the greater curvature, and the length (mm) of each lesion was measured under a dissecting microscope (10×). The total length (mm) of all the lesions of each rat was indicated as an ulcer index. Test medicine samples were given orally before the histamine administration.

[6] = 1,000 mg/kg P.O., first series (control 2.4 ± 0.7)
[7] = 2,000 mg/kg P.O., second series (control 2.9 ± 0.4)
[8] = 1,000 mg/kg P.O., second series (control 2.9 ± 0.4)

Row | Molecule | % Inhibition [1] [%] | Ulcer index [1] [mm] | % Inhibition [2] | Ulcer index [2] [mm] | % Inhibition [3, 6] [%] | Ulcer index [3, 6] [mm^2] | % Inhibition [3, 7] [%] | Ulcer index [3, 7] [mm^2] | % Inhibition ([4]; 300 mg/kg P.O.) [%] | Ulcer index ([4]; 300 mg/kg P.O.) [mm] | % Inhibition ([4]; 1,000 mg/kg P.O.) [%] | Ulcer index ([4]; 1,000 mg/kg P.O.) [mm] | % Inhibition [5] [%] | Ulcer index [5] [mm] | % Inhibition [3, 8] [%] | Ulcer index [3, 8] [mm^2]
1 | NC(=O)CC[C@H](N)C(=O)O [L-Glutamine, L-glutamine] | 66.1 | 6.0 ± 2.2 | 41.8% | 9.5 ± 4.1 | 8.3 | 2.2 ± 0.8 |  |  |  |  |  |  |  |  |  | 
2 | CC(=O)N[C@@H](CCC(N)=O)C(=O)O.[Al] [N-Acetyl-L-glutamine aluminum, N-acetyl-L-glutamine aluminum] |  |  |  |  |  |  | 69.0 | 0.9 ± 0.7 |  |  |  |  |  |  |  | 
3 | N-acetylcarnosine aluminum salt | 96.0 | 0.7 ± 0.6 | 63.2% | 6.0 ± 2.4 | 80.4 | 0.47 ± 0.4 |  |  | 46.7 | 8.1 ± 2.9 | 70.4 | 4.5 ± 2.4 | 61.0 | 9.4 ± 2.0 |  | 
4 | N-acetyl-L-carnosine aluminum salt [B] |  |  |  |  |  |  |  |  |  |  |  |  |  |  | 79.3 | 0.6 ± 0.8
5 | aluminum sucrose sulfate | 79.1 | 3.7 ± 2.1 | 52.1% | 7.8 ± 3.0 | 71.0 | 0.7 ± 0.8 |  |  |  |  | 56.7 | 6.5 ± 6.0 | 40.2 | 14.4 ± 1.5 | 72.4 | 0.8 ± 0.6
6 | NCCC(=O)N[C@@H](Cc1cnc[nH]1)C(=O)O [L-Carnosine, L-carnosine] |  |  | ~ 0% | 17.3 ± 3.0 | 12.5 | 2.1 ± 0.7 |  |  | 6.6 | 14.2 ± 3.7 | 29.6 | 10.7 ± 2.2 | 28.2 | 17.3 ± 3.2 |  | 
